Columns and labels:
Format in all cases: in vivo
[1] = test system: Italian ryegrass; experiment: Test Example 3: herbicidal effects in soil treatment; conditions: dose 3.2 g/a
How it was run: (§1)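 Seeds were sown in sterilized diluvial soil and covered with about 1.5 cm of soil. Compounds, formulated as emulsifiable concentrates and diluted with water, were sprayed evenly over the soil surface at set doses in g/a. Herbicidal effect was scored on a rating scale three weeks later.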

[2] = test system: common chickweed; experiment: as above; conditions: dose 3.2 g/a
How it was run: as §1

[3] = test system: redroot pigweed; experiment: as above; conditions: dose 3.2 g/a
How it was run: as §1

[4] = test system: giant foxtail; experiment: as above; conditions: dose 3.2 g/a
How it was run: as §1

[5] = test system: common lambsquater; experiment: as above; conditions: dose 3.2 g/a
How it was run: as §1

[6] = test system: posumbu knotweed; experiment: as above; conditions: dose 3.2 g/a
How it was run: as §1

[7] = test system: common ragweed; experiment: as above; conditions: dose 3.2 g/a
How it was run: as §1

[8] = test system: water foxtail; experiment: as above; conditions: dose 3.2 g/a
How it was run: as §1

[9] = test system: wild oat; experiment: as above; conditions: dose 3.2 g/a
How it was run: as §1

[10] = test system: large crabgrass; experiment: as above; conditions: dose 3.2 g/a
How it was run: as §1

[11] = test system: barnyardgrass; experiment: as above; conditions: dose 3.2 g/a
How it was run: as §1

[12] = test system: velvetleaf; experiment: as above; conditions: dose 3.2 g/a
How it was run: as §1

[13] = test system: ducksalad; experiment: Test Example 1: herbicidal effects in preemergence treatment under submerged conditions; conditions: dose 2.52 g/a
How it was run: (§2)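 Alluvial soil flooded to 4 cm depth; barnyardgrass, bulrush and ducksalad sown and 2.5-leaf rice seedlings transplanted. Same day, water-diluted emulsifiable concentrates applied to the water surface at set doses (g/a). Kept at 25–30 °C in greenhouse; effects scored 0–5 by mortality after three weeks.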

[14] = test system: bulrush; experiment: as above; conditions: dose 2.52 g/a
How it was run: as §2

[15] = test system: barnyardgrass; experiment: as above; conditions: dose 2.52 g/a
How it was run: as §2

[16] = test system: transplanted rice; experiment: Test Example 1: preemergence treatment under submerged conditions, effect on crop; conditions: dose 2.52 g/a
How it was run: as §2

[17] = test system: Italian ryegrass; experiment: Test Example 4: herbicidal effect in foliage treatment; conditions: dose 3.2 g/a, three weeks after the application
How it was run: (§3)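 Weeds and crops sown in sterilized diluvial soil under ~1.5 cm cover and grown in greenhouse at 25 to 30° C. At 14 days, water-diluted emulsifiable concentrate sprayed onto foliage at set doses (g/a); herbicidal effect scored on a rating scale three weeks after application.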

[18] = test system: common chickweed; experiment: as above; conditions: dose 3.2 g/a, three weeks after the application
How it was run: as §3

[19] = test system: redroot pigweed; experiment: as above; conditions: dose 3.2 g/a, three weeks after the application
How it was run: as §3

[20] = test system: giant foxtail; experiment: as above; conditions: dose 3.2 g/a, three weeks after the application
How it was run: as §3

[21] = test system: common lambsquater; experiment: as above; conditions: dose 3.2 g/a, three weeks after the application
How it was run: as §3

[22] = test system: posumbu knotweed; experiment: as above; conditions: dose 3.2 g/a, three weeks after the application
How it was run: as §3

[23] = test system: common ragweed; experiment: as above; conditions: dose 3.2 g/a, three weeks after the application
How it was run: as §3

[24] = test system: water foxtail; experiment: as above; conditions: dose 3.2 g/a, three weeks after the application
How it was run: as §3

[25] = test system: wild oat; experiment: as above; conditions: dose 3.2 g/a, three weeks after the application
How it was run: as §3

[26] = test system: large crabgrass; experiment: as above; conditions: dose 3.2 g/a, three weeks after the application
How it was run: as §3

[27] = test system: beadstraw; experiment: as above; conditions: dose 3.2 g/a, three weeks after the application
How it was run: as §3

[28] = test system: barnyardgrass; experiment: as above; conditions: dose 3.2 g/a, three weeks after the application
How it was run: as §3

[29] = test system: velvetleaf; experiment: as above; conditions: dose 3.2 g/a, three weeks after the application
How it was run: as §3

[30] = test system: ducksalad; experiment: Test Example 2: herbicidal effects during the vegetation period under submerged conditions; conditions: treatment during the vegetation period under submerged conditions; dose 2.52 g/a
How it was run: (§4)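 Barnyardgrass, bulrush and ducksalad were co-sown in alluvial soil flooded to 4 cm and grown in a greenhouse at 25 to 30° C. At the 1- or 2-leaf stage, water-diluted emulsifiable concentrates went onto the water surface at set doses (g/a). Herbicidal effect was scored three weeks later on a graded scale.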

[31] = test system: bulrush; experiment: as above; conditions: treatment during the vegetation period under submerged conditions; dose 2.52 g/a
How it was run: as §4

[32] = test system: barnyardgrass; experiment: as above; conditions: treatment during the vegetation period under submerged conditions; dose 2.52 g/a
How it was run: as §4

| SMILES | herbicidal effect, H: Italian ryegrass [1] | herbicidal effect, N: common chickweed [2] | herbicidal effect, K: redroot pigweed [3] | herbicidal effect, E: giant foxtail [4] | herbicidal effect, L: common lambsquater [5] | herbicidal effect, M: posumbu knotweed [6] | herbicidal effect, J: common ragweed [7] | herbicidal effect, G: water foxtail [8] | herbicidal effect, F: wild oat [9] | herbicidal effect, D: large crabgrass [10] | herbicidal effect, A: barnyardgrass [11] | herbicidal effect, I: velvetleaf [12] | C: ducksalad, herbicidal effect (evaluation scale 0-5) [13] | B: bulrush, herbicidal effect (evaluation scale 0-5) [14] | A: barnyardgrass, herbicidal effect (evaluation scale 0-5) [15] | a: transplanted rice, effect on crop (evaluation scale 0-5) [16] | H: Italian ryegrass, herbicidal effect [17] | N: common chickweed, herbicidal effect [18] | K: redroot pigweed, herbicidal effect [19] | E: giant foxtail, herbicidal effect [20] | also measured |
| --- | --- | --- | --- | --- | --- | --- | --- | --- | --- | --- | --- | --- | --- | --- | --- | --- | --- | --- | --- | --- | --- |
| O=C1CCCON1Cc1ccccc1N(C(=O)OCCCl)S(=O)(=O)C(F)(F)F [III-14] | 3 (mortality of at least 40% and less than 70%) | 5 (mortality of 90% or above (nearly complete death)) | 1 (mortality of at least 5% and less than 20%) | 5 (mortality of 90% or above (nearly complete death)) | 0 (mortality of less than 5% (almost ineffective)) | 3 (mortality of at least 40% and less than 70%) | 5 (mortality of 90% or above (nearly complete death)) | 5 (mortality of 90% or above (nearly complete death)) | 0 (mortality of less than 5% (almost ineffective)) | 5 (mortality of 90% or above (nearly complete death)) | 5 (mortality of 90% or above (nearly complete death)) | 5 (mortality of 90% or above (nearly complete death)) | 5 (mortality of 90% or above (nearly complete death)) | 5 (mortality of 90% or above (nearly complete death)) | 5 (mortality of 90% or above (nearly complete death)) | 3 (mortality of at least 40% and less than 70%) | 4 (mortality of at least 70% and less than 90%) | 4 (mortality of at least 70% and less than 90%) | 3 (mortality of at least 40% and less than 70%) | 5 (mortality of 90% or above (nearly complete death)) | L: common lambsquater, herbicidal effect [21]: 0 (mortality of less than 5% (almost ineffective)); M: posumbu knotweed, herbicidal effect [22]: 0 (mortality of less than 5% (almost ineffective)); J: common ragweed, herbicidal effect [23]: 4 (mortality of at least 70% and less than 90%); G: water foxtail, herbicidal effect [24]: 5 (mortality of 90% or above (nearly complete death)); F: wild oat, herbicidal effect [25]: 0 (mortality of less than 5% (almost ineffective)); D: large crabgrass, herbicidal effect [26]: 5 (mortality of 90% or above (nearly complete death)); O: beadstraw, herbicidal effect [27]: 5 (mortality of 90% or above (nearly complete death)); A: barnyardgrass, herbicidal effect [28]: 5 (mortality of 90% or above (nearly complete death)); I: velvetleaf, herbicidal effect [29]: 5 (mortality of 90% or above (nearly complete death)); C: ducksalad, herbicidal effect (evaluation scale 0-5) [30]: 5 (mortality of 90% or above (nearly complete death)); B: bulrush, herbicidal effect (evaluation scale 0-5) [31]: 5 (mortality of 90% or above (nearly complete death)); A: barnyardgrass, herbicidal effect (evaluation scale 0-5) [32]: 5 (mortality of 90% or above (nearly complete death)) |
| CCN1COCN(Cc2ccccc2NS(=O)(=O)C(F)(F)F)C1=O [IV-5] | 4 (mortality of at least 70% and less than 90%) | 5 (mortality of 90% or above (nearly complete death)) | 3 (mortality of at least 40% and less than 70%) | 5 (mortality of 90% or above (nearly complete death)) | 3 (mortality of at least 40% and less than 70%) | 4 (mortality of at least 70% and less than 90%) | 0 (mortality of less than 5% (almost ineffective)) | 5 (mortality of 90% or above (nearly complete death)) | 2 (mortality of at least 20% and less than 40%) | 5 (mortality of 90% or above (nearly complete death)) | 5 (mortality of 90% or above (nearly complete death)) | 5 (mortality of 90% or above (nearly complete death)) | 4 (mortality of at least 70% and less than 90%) | 5 (mortality of 90% or above (nearly complete death)) | 5 (mortality of 90% or above (nearly complete death)) | 0 (mortality of less than 5% (almost ineffective)) | 3 (mortality of at least 40% and less than 70%) | 4 (mortality of at least 70% and less than 90%) | 0 (mortality of less than 5% (almost ineffective)) | 4 (mortality of at least 70% and less than 90%) | L: common lambsquater, herbicidal effect [21]: 3 (mortality of at least 40% and less than 70%); M: posumbu knotweed, herbicidal effect [22]: 0 (mortality of less than 5% (almost ineffective)); J: common ragweed, herbicidal effect [23]: 3 (mortality of at least 40% and less than 70%); G: water foxtail, herbicidal effect [24]: 5 (mortality of 90% or above (nearly complete death)); F: wild oat, herbicidal effect [25]: 0 (mortality of less than 5% (almost ineffective)); D: large crabgrass, herbicidal effect [26]: 4 (mortality of at least 70% and less than 90%); O: beadstraw, herbicidal effect [27]: 3 (mortality of at least 40% and less than 70%); A: barnyardgrass, herbicidal effect [28]: 5 (mortality of 90% or above (nearly complete death)); I: velvetleaf, herbicidal effect [29]: 5 (mortality of 90% or above (nearly complete death)); C: ducksalad, herbicidal effect (evaluation scale 0-5) [30]: 5 (mortality of 90% or above (nearly complete death)); B: bulrush, herbicidal effect (evaluation scale 0-5) [31]: 5 (mortality of 90% or above (nearly complete death)); A: barnyardgrass, herbicidal effect (evaluation scale 0-5) [32]: 5 (mortality of 90% or above (nearly complete death)) |
